According to article PMC11255104 (Food Chemistry: X, 2024):

Experiment: Pharmacokinetic study in rats after oral administration of MOL extract
Format: in vivo, Sprague-Dawley rats
[1] = male, Sprague-Dawley, rat, plasma, po, 30 g/kg

Compound	half-life [1]	Cmax [1]	Tmax [1]	time over which the substance could be detected in plasma (rat plasma, oral MOL extract 30 g/kg)
O=C(/C=C/c1ccc(O)c(O)c1)O[C@@H]1C[C@](O)(C(=O)O)C[C@@H](O)[C@H]1O [Chlorogenic acid]	5.06 h	–	–	–
O=c1c(O[C@@H]2O[C@H](CO)[C@@H](O)[C@H](O)[C@H]2O)c(-c2ccc(O)c(O)c2)oc2cc(O)cc(O)c12 [Isoquercitrin]	–	643 ng/mL	0.24 h	≤ 12 h
